Source: patent US11974993B2, “Solution formulations of CX-011” (City of Hope, priority 2021, dated 2024)
Entries after “also recorded” stand apart in the source; their conditions may differ.

How the values were obtained:
[1] = Properties of the CX-011 solution in Kolliphor HS 15: pH, 0.22 um filtration with UV absorbance at 323 nm, storage stability by appearance and HPLC; format: physicochemical
Method: Preparation of 30% (w/v) Kolliphor HS 15 in aqueous solution. Solid Kolliphor HS 15 was immersed in a water bath at 37° C. until melted. A 30% (w/v) solution was prepared by vortex mixing Kolliphor HS 15 with an appropriate amount of distilled water. The mixture was filtered through a 0.22 um PES filter (Corning).
(§1) 15 mg CX-011 was added to a 50 mL tube. A volume of 5-10 mL 30% kolliphor HS was added. […] Distilled water or other physiology buffer, for example, PBS or saline was added to the above completely dissolved solution to final volume 100 mL with gently stirring. The solution can be filtered through 0.22 um filter. The appearance and pH value was noted. The solution was clear with pH value 5-5.5 for water and saline solution and is 7.2 for PBS solution. […] The final Kolliphor HS concentration in solution is about 1.5%-3%.

[2] = tested on: aggrecan and collagen neoepitopes; conditions: disclosed in U.S. Patent Publication No. 2020/0377494A1; cited from earlier work
pSTAT3 and MYC = conditions: disclosed in U.S. Patent Publication No. 2020/0377494A1; cited from earlier work
[3] = Dissolution of solid CX-011 in solvents and excipient solutions, determined by visual inspection; format: physicochemical
Method: Confirmation of dissolution can be confirmed by visual inspection, either by the naked eye or by microscope, to detect the presence of undissolved particles. Spectroscopic methods can also be used, such as light scattering detection or absorbance spectroscopy. Apparatuses for such spectroscopic detection are well-known in the art.
Solid CX-011 (5 mg) was mixed in a solution of 20%-40% 2-Hydroxypropyl)-β-cyclodextrin (Accelachem) in water (10 mL) and the mixture sonicated for 30 minutes. Dissolution determined by visual inspection. Not soluble.
Solid CX-011 (5 mg) was mixed in a solution of 20%-40% 2-Hydroxypropyl)-β-cyclodextrin (Accelachem) in water (10 mL) and 50 μL 1N HCl and the mixture sonicated for 30 minutes. Dissolution determined by visual inspection. Not soluble.
Solid CX-011 (4 mg) was mixed in a solution of 3N HCl aqueous (2 mL) and the mixture sonicated for 30 minutes. Dissolution determined by visual inspection. Not soluble.
Solid CX-011 (2.6 mg) was mixed in a solution of ˜4N HCl in methanol (200 uL) and the mixture sonicated for 30 minutes. Dissolution determined by visual inspection. Not soluble.
Solvent was evaporated. The remaining residue was washed with ether twice, then dried. The dried residue was mixed with water (10 mL) and the mixture sonicated for 30 minutes. Dissolution determined by visual inspection. Not soluble.
Solid CX-011 (1 mg) was mixed in a solution of 10% polyvinylpyrrolidone K-30 (10 mL) and the mixture sonicated for 30 minutes. Dissolution determined by visual inspection. Not soluble.
Solid CX-011 (1.5 mg) was mixed in ethanol (0.5 mL) and the mixture sonicated for 30 minutes. Dissolution determined by visual inspection. Not soluble.
Solid CX-011 (3 mg) was mixed in propylene glycol (0.5 mL) (Spectrum) and the mixture sonicated for 30 minutes. Dissolution determined by visual inspection. Not soluble.
Water (0.5 mL) was added.
Solid CX-011 (2.8 mg) was added to PEG400 (0.5 mL) (Spectrum) and mixed on a vortexer until dissolved. Water (0.5 mL) was added.
Solid CX-011 (3.0 mg) was mixed in 30% Kolliphor® HS 15 (5 mL) (Sigma) and the mixture sonicated for 30 minutes. Dissolution determined by visual inspection.
Solid CX-011 (15 mg) was mixed in polysorbate 80 (1 mL) and the mixture sonicated for 30 minutes. The solution was clear.
as §1

## Cc1ccc(-c2csc(NC(=O)c3ccccn3)n2)cc1 [CX-011]
[1]; Example 14: 0.22 um filter, UV absorbance at 323 nm
  Difference of the concentration of CX-011 before or after filtration: no significant difference
[1]; Example 14: PBS solution
  pH value of the solution: 7.2
[1]; Example 14: water and saline solution
  pH value of the solution: 5-5.5
[1]; Example 14 solution, after 1 week at room temperature
  Appearance of the solution on storage: remained clear
[1]; Example 14 solution, under preparation and storage
  Stability of the compound by HPLC analysis: stable
[2]
  Generation of aggrecan and collagen neoepitopes: almost completely blocked
pSTAT3 and MYC
  Levels of pSTAT3 and MYC: did not increase
[3]; Example 1: 5 mg in 10 mL 20%-40% 2-hydroxypropyl-β-cyclodextrin in water, sonicated 30 minutes
  Dissolution by visual inspection: Not soluble
[3]; Example 2: 5 mg in 10 mL 20%-40% 2-hydroxypropyl-β-cyclodextrin in water plus 50 μL 1N HCl, sonicated 30 minutes
  Dissolution by visual inspection: Not soluble
[3]; Example 3: 4 mg in 2 mL 3N HCl aqueous, sonicated 30 minutes
  Dissolution by visual inspection: Not soluble
[3]; Example 4: 2.6 mg in 200 uL ~4N HCl in methanol, sonicated 30 minutes
  Dissolution by visual inspection: Not soluble
[3]; Example 5: 6 mg treated with 1 eq MeSO3H in CH2Cl2, evaporated, dried residue in 10 mL water, sonicated 30 minutes
  Dissolution by visual inspection: Not soluble
[3]; Example 6: 1 mg in 10 mL 10% polyvinylpyrrolidone K-30, sonicated 30 minutes
  Dissolution by visual inspection: Not soluble
[3]; Example 7: 1.5 mg in 0.5 mL ethanol, sonicated 30 minutes
  Dissolution by visual inspection: Not soluble
[3]; Example 8: 3 mg in 0.5 mL propylene glycol, sonicated 30 minutes
  Dissolution by visual inspection: Not soluble
[3]; Example 9: 4 mg in 0.5 mL DMA, then 0.5 mL water added
  Appearance after addition of water: Precipitation was observed
[3]; Example 9: 4 mg in 0.5 mL DMA, vortexed
  Dissolution by visual inspection: clear solution
[3]; Example 10: 2.8 mg in 0.5 mL PEG400, then 0.5 mL water added
  Appearance after addition of water: Precipitation was observed
[3]; Example 10: 2.8 mg in 0.5 mL PEG400, vortexed
  Dissolution by visual inspection: dissolved
[3]; Example 11: 3.0 mg in 5 mL 30% Kolliphor HS 15, sonicated 30 minutes
  Dissolution by visual inspection: Dissolved—clear solution
[3]; Example 12: 15 mg in 1 mL polysorbate 80, sonicated 30 minutes
  Dissolution by visual inspection: clear
[3]; Example 12: 15 mg in 1 mL polysorbate 80, then 10 mL water added
  Appearance after addition of water: precipitate was observed
[3]; Example 14: 15 mg diluted to 100 mL with water, PBS or saline, final Kolliphor HS about 1.5%-3%
  Appearance of the diluted solution: clear
[3]; Example 14: 15 mg in 5-10 mL 30% Kolliphor HS, sonicated 2 hours
  Dissolution by visual inspection: clear solution
[3]; aqueous solution, general statement
  Solubility in aqueous solution: poorly soluble; also recorded: poor solubility
